Measured values as given in US10738028B2, “Spiro three-membered ring, spiro five-membered ring peptide deformylase inhibitor and use thereof in antibacteria and anti-tumor” (priority 2016, dated 2020).
≈ marks a conversion by molar mass, not a printed value.

Experiments:
Type in all cases: cell-based
[1] = tested on: Streptococcus pneoumoniae (SPN); experiment: MIC, two-fold agar dilution (CLSI), clinical isolates
Excerpt: (§1) 1. The invention adopts the two-fold agar dilution method recommended by the operating procedure of antimicrobial susceptibility testing set by American Clinical and Laboratory Standards Institute (CLSI) to determine the Minimum Inhibitory Concentration (MIC) of the test samples against the tested strains.

[2] = tested on: methicillin-sensitive Staphylococcus aureus (MSSA); experiment: as above
Excerpt: as §1

[3] = tested on: methicillin-resistant Staphylococcus aureus (MRSA); experiment: as above
Excerpt: as §1

[4] = tested on: Moraxella catarrhalis (BCA); experiment: as above
Excerpt: as §1

[5] = tested on: Enterococcus faecalis (EFA); experiment: as above
Excerpt: as §1

[6] = tested on: Escherichia coli (including ESBLs, non-ESBLs); experiment: as above
Excerpt: as §1

[7] = tested on: Enterococcus faecium (EFM); experiment: as above
Excerpt: as §1

[8] = tested on: methicillin-resistant Staphylococcus epidermidis (MRSE); experiment: as above
Excerpt: as §1

[9] = tested on: methicillin-sensitive Staphylococcus epidermidis (MSSE); experiment: as above
Excerpt: as §1

[10] = tested on: HCT-116 colorectal cancer cell line; experiment: CCK-8 proliferation inhibition; details: Homo sapiens, HCT-116, 72 h, concentration of 30 μM; 72 hours; CCK-8; read-out: HCT116 inhibition rate/%
Description: (1) HCT-116 colorectal cancer cell line, A549 lung cancer cell line, MGC-803 gastric cancer cell line, BEL-7402 liver cancer cell line, Jurkat T cell leukemia cell line, HL60 acute myeloid leukemia cell line, Hela cervical cancer cell line, MCF-7 breast cancer cell line, PC3 prostate cancer cell line and SAOS-2 osteosarcoma cell line were made into single cell suspension, 180 μL of which was inoculated into 96-well culture plate, which was cultured overnight in CO2 incubator (37° C., 5% CO2, 95% air).
(2) Each of the spiro three-membered ring, spiro five membered ring peptide deformylase inhibitors was dissolved in DMSO, and was further formulated into drug solution with required different final concentration using corresponding cell culture medium. The drug solutions were added to the above cells respectively (20 μL/well), with the control group added with 1‰ DMSO, and cultured in a CO2 incubator for 72 hours.
(3) After incubation for 72 hours, the culture solution was decanted, and 100 μL of 1:10 diluted CCK-8 solution was added.
Wherein, in step (1), the concentration of the single cell suspension was 2000 cells/well.
Wherein, in step (2), HCT-116 cells were cultured in McCoy's 5A medium (containing 10% newborn bovine serum, 1% double antibody); A549 and PC3 cells were cultured in F12 medium (containing 10% newborn bovine serum, 1% double antibody); MGC-803, BEL-7402, SAOS-2, Jurkat and HL60 cells were cultured in 1640 medium (containing 10% newborn bovine serum, 1% double antibody); and MCF-7 and Hela cells were cultured in DMEM high glucose medium (containing 10% newborn bovine serum, 1% double antibody).

CCCC[C@H](CN(O)C=O)C(=O)N1CC2(CC2)C[C@H]1c1nc2ccccc2n1CCN(C)C [Example 24]
MIC (anti-bacterial activity) ([1]; strain SPN 16-2): 4 µg/mL (≈ 8.78 µM) | MIC (anti-bacterial activity) ([1]; strain SPN 16-4): 1 µg/mL (≈ 2.19 µM) | MIC (anti-bacterial activity) ([2]; strain MSSA 15-3): 8 µg/mL (≈ 17.6 µM) | MIC (anti-bacterial activity) ([2]; strain MSSA 15-4): 8 µg/mL (≈ 17.6 µM) | MIC (anti-bacterial activity) ([2]; strain MSSA 15-5): 8 µg/mL (≈ 17.6 µM) | MIC (anti-bacterial activity) ([2]; strain MSSA 15-6): 8 µg/mL (≈ 17.6 µM) | MIC (anti-bacterial activity) ([3]; strain MRSA 15-1): 8 µg/mL (≈ 17.6 µM) | MIC (anti-bacterial activity) ([3]; strain MRSA 15-2): 32 µg/mL (≈ 70.2 µM) | MIC (anti-bacterial activity) ([3]; strain MRSA 15-3): 32 µg/mL (≈ 70.2 µM) | MIC (anti-bacterial activity) ([3]; strain MRSA 15-4): 8 µg/mL (≈ 17.6 µM) | MIC (anti-bacterial activity) ([4]; strain BCA 14-1): 32 µg/mL (≈ 70.2 µM) | MIC (anti-bacterial activity) ([4]; strain BCA 14-4): 16 µg/mL (≈ 35.1 µM) | MIC (anti-bacterial activity) ([4]; strain BCA 14-5): 8 µg/mL (≈ 17.6 µM) | MIC (anti-bacterial activity) ([4]; strain BCA 14-6): 32 µg/mL (≈ 70.2 µM) | MIC (anti-bacterial activity) ([4]; strain BCA 14-7): 8 µg/mL (≈ 17.6 µM) | MIC (anti-bacterial activity) ([4]; strain BCA 14-8): 8 µg/mL (≈ 17.6 µM) | MIC (anti-bacterial activity) ([4]; strain BCA 14-10): 8 µg/mL (≈ 17.6 µM) | MIC (anti-bacterial activity) ([5]; strain EFA 15-1): 32 µg/mL (≈ 70.2 µM) | MIC (anti-bacterial activity) ([5]; strain EFA 15-2): 32 µg/mL (≈ 70.2 µM) | MIC (anti-bacterial activity) ([5]; strain EFA 15-3): 8 µg/mL (≈ 17.6 µM) | MIC (anti-bacterial activity) ([5]; strain EFA 15-4): 32 µg/mL (≈ 70.2 µM) | MIC (anti-bacterial activity) ([5]; strain EFA 15-5): 32 µg/mL (≈ 70.2 µM) | MIC (anti-bacterial activity) ([5]; strain EFA 15-6): 32 µg/mL (≈ 70.2 µM) | MIC (anti-bacterial activity) ([5]; strain EFA 15-9): 32 µg/mL (≈ 70.2 µM) | MIC (anti-bacterial activity) ([6]; strain ECO+ 15-1): 8 µg/mL (≈ 17.6 µM) | MIC (anti-bacterial activity) ([6]; strain ECO+ 15-2): 16 µg/mL (≈ 35.1 µM) | MIC (anti-bacterial activity) ([6]; strain ECO+ 15-3): 16 µg/mL (≈ 35.1 µM) | MIC (anti-bacterial activity) ([6]; strain ECO+ 15-4): 16 µg/mL (≈ 35.1 µM) | MIC (anti-bacterial activity) ([6]; strain ECO− 15-1): 8 µg/mL (≈ 17.6 µM) | MIC (anti-bacterial activity) ([6]; strain ECO− 15-2): 16 µg/mL (≈ 35.1 µM) | MIC (anti-bacterial activity) ([6]; strain ECO− 15-3): 32 µg/mL (≈ 70.2 µM) | MIC (anti-bacterial activity) ([6]; strain ECO− 15-4): 16 µg/mL (≈ 35.1 µM) | MIC (anti-bacterial activity) ([7]; strain EFM 15-1): 4 µg/mL (≈ 8.78 µM) | MIC (anti-bacterial activity) ([7]; strain EFM 15-2): 8 µg/mL (≈ 17.6 µM) | MIC (anti-bacterial activity) ([7]; strain EFM 15-3): 2 µg/mL (≈ 4.39 µM) | MIC (anti-bacterial activity) ([7]; strain EFM 15-4): 8 µg/mL (≈ 17.6 µM) | MIC (anti-bacterial activity) ([7]; strain EFM 15-5): 4 µg/mL (≈ 8.78 µM) | MIC (anti-bacterial activity) ([7]; strain EFM 15-6): 8 µg/mL (≈ 17.6 µM) | MIC (anti-bacterial activity) ([8]; strain MRSE 15-1): 8 µg/mL (≈ 17.6 µM) | MIC (anti-bacterial activity) ([8]; strain MRSE 15-2): 8 µg/mL (≈ 17.6 µM) | MIC (anti-bacterial activity) ([8]; strain MRSE 15-3): 8 µg/mL (≈ 17.6 µM) | MIC (anti-bacterial activity) ([8]; strain MRSE 15-7): 8 µg/mL (≈ 17.6 µM) | MIC (anti-bacterial activity) ([9]; strain MSSE 15-3): 8 µg/mL (≈ 17.6 µM) | MIC (anti-bacterial activity) ([9]; strain MSSE 15-4): 2 µg/mL (≈ 4.39 µM) | MIC (anti-bacterial activity) ([9]; strain MSSE 15-5): 2 µg/mL (≈ 4.39 µM) | MIC (anti-bacterial activity) ([9]; strain MSSE 15-6): 2 µg/mL (≈ 4.39 µM) | inhibition at 30 µM [10]: 2%

O=CN(O)C[C@@H](CC1CCCC1)C(=O)N1CC2(CC2)C[C@H]1C(=O)Nc1cnccn1 [Example 26]
MIC (anti-bacterial activity) ([1]; strain SPN 16-2): 0.25 µg/mL (≈ 0.602 µM) | MIC (anti-bacterial activity) ([1]; strain SPN 16-4): 2 µg/mL (≈ 4.81 µM) | MIC (anti-bacterial activity) ([2]; strain MSSA 15-3): 0.25 µg/mL (≈ 0.602 µM) | MIC (anti-bacterial activity) ([2]; strain MSSA 15-4): 0.25 µg/mL (≈ 0.602 µM) | MIC (anti-bacterial activity) ([2]; strain MSSA 15-5): 0.25 µg/mL (≈ 0.602 µM) | MIC (anti-bacterial activity) ([2]; strain MSSA 15-6): 0.25 µg/mL (≈ 0.602 µM) | MIC (anti-bacterial activity) ([3]; strain MRSA 15-1): 0.25 µg/mL (≈ 0.602 µM) | MIC (anti-bacterial activity) ([3]; strain MRSA 15-2): 0.25 µg/mL (≈ 0.602 µM) | MIC (anti-bacterial activity) ([3]; strain MRSA 15-3): 0.25 µg/mL (≈ 0.602 µM) | MIC (anti-bacterial activity) ([3]; strain MRSA 15-4): 0.25 µg/mL (≈ 0.602 µM) | MIC (anti-bacterial activity) ([4]; strain BCA 14-1): 0.5 µg/mL (≈ 1.2 µM) | MIC (anti-bacterial activity) ([4]; strain BCA 14-4): 0.5 µg/mL (≈ 1.2 µM) | MIC (anti-bacterial activity) ([4]; strain BCA 14-5): 0.25 µg/mL (≈ 0.602 µM) | MIC (anti-bacterial activity) ([4]; strain BCA 14-6): 0.5 µg/mL (≈ 1.2 µM) | MIC (anti-bacterial activity) ([4]; strain BCA 14-7): 0.25 µg/mL (≈ 0.602 µM) | MIC (anti-bacterial activity) ([4]; strain BCA 14-8): 0.5 µg/mL (≈ 1.2 µM) | MIC (anti-bacterial activity) ([4]; strain BCA 14-10): 0.25 µg/mL (≈ 0.602 µM) | MIC (anti-bacterial activity) ([5]; strain EFA 15-1): 2 µg/mL (≈ 4.81 µM) | MIC (anti-bacterial activity) ([5]; strain EFA 15-2): 2 µg/mL (≈ 4.81 µM) | MIC (anti-bacterial activity) ([5]; strain EFA 15-3): 0.5 µg/mL (≈ 1.2 µM) | MIC (anti-bacterial activity) ([5]; strain EFA 15-4): 2 µg/mL (≈ 4.81 µM) | MIC (anti-bacterial activity) ([5]; strain EFA 15-5): 2 µg/mL (≈ 4.81 µM) | MIC (anti-bacterial activity) ([5]; strain EFA 15-6): 2 µg/mL (≈ 4.81 µM) | MIC (anti-bacterial activity) ([5]; strain EFA 15-9): 2 µg/mL (≈ 4.81 µM) | MIC (anti-bacterial activity) ([6]; strain ECO+ 15-1): 32 µg/mL (≈ 77 µM) | MIC (anti-bacterial activity) ([6]; strain ECO+ 15-2): 32 µg/mL (≈ 77 µM) | MIC (anti-bacterial activity) ([6]; strain ECO+ 15-3): 32 µg/mL (≈ 77 µM) | MIC (anti-bacterial activity) ([6]; strain ECO+ 15-4): 32 µg/mL (≈ 77 µM) | MIC (anti-bacterial activity) ([6]; strain ECO− 15-1): 32 µg/mL (≈ 77 µM) | MIC (anti-bacterial activity) ([6]; strain ECO− 15-2): 32 µg/mL (≈ 77 µM) | MIC (anti-bacterial activity) ([6]; strain ECO− 15-3): 32 µg/mL (≈ 77 µM) | MIC (anti-bacterial activity) ([6]; strain ECO− 15-4): 32 µg/mL (≈ 77 µM) | MIC (anti-bacterial activity) ([7]; strain EFM 15-1): 0.5 µg/mL (≈ 1.2 µM) | MIC (anti-bacterial activity) ([7]; strain EFM 15-2): 0.5 µg/mL (≈ 1.2 µM) | MIC (anti-bacterial activity) ([7]; strain EFM 15-3): 0.25 µg/mL (≈ 0.602 µM) | MIC (anti-bacterial activity) ([7]; strain EFM 15-4): 0.5 µg/mL (≈ 1.2 µM) | MIC (anti-bacterial activity) ([7]; strain EFM 15-5): 0.25 µg/mL (≈ 0.602 µM) | MIC (anti-bacterial activity) ([7]; strain EFM 15-6): 0.5 µg/mL (≈ 1.2 µM) | MIC (anti-bacterial activity) ([8]; strain MRSE 15-1): 0.125 µg/mL (≈ 0.301 µM) | MIC (anti-bacterial activity) ([8]; strain MRSE 15-2): 0.5 µg/mL (≈ 1.2 µM) | MIC (anti-bacterial activity) ([8]; strain MRSE 15-3): 0.5 µg/mL (≈ 1.2 µM) | MIC (anti-bacterial activity) ([8]; strain MRSE 15-7): 0.5 µg/mL (≈ 1.2 µM) | MIC (anti-bacterial activity) ([9]; strain MSSE 15-3): 0.125 µg/mL (≈ 0.301 µM) | MIC (anti-bacterial activity) ([9]; strain MSSE 15-4): 0.5 µg/mL (≈ 1.2 µM) | MIC (anti-bacterial activity) ([9]; strain MSSE 15-5): 0.5 µg/mL (≈ 1.2 µM) | MIC (anti-bacterial activity) ([9]; strain MSSE 15-6): 0.5 µg/mL (≈ 1.2 µM) | inhibition at 30 µM [10]: 18%
